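Method: 48-hour compound exposure of cells in 96-well plates, five concentrations, linear interpolation of endpoints. The concentration for 50% growth inhibition is given as GI50.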 The source made the active and inactive calls. Cut-off read from the data, not from the text of the source: active = GI50 up to about 1.1 µM and inactive = higher.
Legend:
Assay in all cases: NCI anticancer screen, dose series, 48 h
EKVX = test system: EKVX
SF-295 = test system: SF-295
MOLT-4 = test system: MOLT-4
SK-MEL-5 = test system: SK-MEL-5
NCI-H23 = test system: NCI-H23
ACHN = test system: ACHN
NCI-H522 = test system: NCI-H522
SNB-75 = test system: SNB-75
COLO 205 = test system: COLO 205
SNB-19 = test system: SNB-19
HOP-62 = test system: HOP-62
CCRF-CEM = test system: CCRF-CEM
M14 = test system: M14
HCC 2998 = test system: HCC 2998
HOP-92 = test system: HOP-92
UACC-62 = test system: UACC-62
KM12 = test system: KM12
UACC-257 = test system: UACC-257

Measured: GI50

CC1=C(c2cc(C(=O)Nc3cc(C)ccc3C)nc(N)n2)Sc2ccccc2N1
inactive: EKVX > 100 µM | SF-295 > 100 µM | MOLT-4 > 100 µM | SK-MEL-5 > 100 µM | NCI-H23 > 100 µM | ACHN > 100 µM | NCI-H522 > 100 µM | SNB-75 > 100 µM | COLO 205 > 100 µM | SNB-19 > 100 µM | HOP-62 > 100 µM | CCRF-CEM > 100 µM | M14 > 100 µM | HCC 2998 > 100 µM | HOP-92 > 100 µM | UACC-62 > 100 µM | KM12 > 100 µM | UACC-257 > 100 µM

Cc1ccc([N+](=O)[O-])cc1NC(=O)/C(=N/NC(=S)NN)C1SC(=S)NC1=O (centres undefined)
inactive: EKVX > 100 µM | SF-295 > 100 µM | MOLT-4 78.9 µM | SK-MEL-5 > 100 µM | NCI-H23 > 100 µM | ACHN > 100 µM | NCI-H522 > 100 µM | SNB-75 > 100 µM | COLO 205 > 100 µM | SNB-19 > 100 µM | HOP-62 > 100 µM | CCRF-CEM 40.2 µM | M14 > 100 µM | HOP-92 > 100 µM | UACC-62 > 100 µM | KM12 > 100 µM | UACC-257 > 100 µM

C=CCOC(=O)C1CCC(=O)N1C(=O)C(Cl)Cl (centres undefined)
inactive: EKVX > 100 µM | SF-295 > 100 µM | MOLT-4 > 100 µM | SK-MEL-5 > 100 µM | NCI-H23 > 100 µM | ACHN > 100 µM | NCI-H522 > 100 µM | SNB-75 61.8 µM | COLO 205 > 100 µM | SNB-19 > 100 µM | HOP-62 > 100 µM | CCRF-CEM > 100 µM | M14 > 100 µM | HCC 2998 > 100 µM | HOP-92 > 100 µM | UACC-62 > 100 µM | KM12 > 100 µM | UACC-257 > 100 µM

COC(=O)c1c(OC(=O)c2ccccc2)noc1CC(=O)OC1C=CCCC1 (centres undefined)
inactive: MOLT-4 25.5 µM | SK-MEL-5 27.5 µM | ACHN > 100 µM | NCI-H522 45.4 µM | SNB-75 > 100 µM | COLO 205 > 100 µM | SNB-19 > 100 µM | HOP-62 > 100 µM | CCRF-CEM 80 µM | M14 > 100 µM | HCC 2998 > 100 µM | UACC-62 28.6 µM | KM12 > 100 µM | UACC-257 95.5 µM

C/N=C1\CC2c3cc(OC)c(OC)cc3CCN2C2=C1C(=O)CC(C)(C)C2 (centres undefined)
inactive: EKVX > 100 µM | SF-295 > 100 µM | MOLT-4 > 100 µM | SK-MEL-5 > 100 µM | NCI-H23 > 100 µM | ACHN > 100 µM | NCI-H522 > 100 µM | SNB-75 > 100 µM | COLO 205 > 100 µM | SNB-19 > 100 µM | CCRF-CEM > 100 µM | HCC 2998 > 100 µM | HOP-92 > 100 µM | KM12 > 100 µM | UACC-257 > 100 µM

C=CCc1cc(OC)c2c(c1)C(OC)CC(c1ccc(OC)c(OC)c1)O2 (centres undefined)
inactive: EKVX > 100 µM | SF-295 > 100 µM | MOLT-4 45.5 µM | SK-MEL-5 > 100 µM | ACHN 71.9 µM | SNB-75 54.8 µM | COLO 205 > 100 µM | SNB-19 > 100 µM | HOP-62 > 100 µM | CCRF-CEM > 100 µM | M14 78.2 µM | HCC 2998 > 100 µM | UACC-62 > 100 µM | KM12 > 100 µM | UACC-257 > 100 µM

NN/C(Cc1ccccc1)=N\NO
inactive: EKVX > 100 µM | SF-295 > 100 µM | MOLT-4 > 100 µM | SK-MEL-5 53.7 µM | NCI-H23 57.4 µM | ACHN 69.3 µM | SNB-75 > 100 µM | COLO 205 > 100 µM | SNB-19 > 100 µM | CCRF-CEM 39.8 µM | M14 63.8 µM | HCC 2998 > 100 µM | HOP-92 > 100 µM | UACC-62 56.2 µM | KM12 17.4 µM | UACC-257 > 100 µM

N#Cc1ccccc1NC(=O)C(=O)C1NC(=S)NC1=O (centres undefined)
inactive: EKVX > 100 µM | SF-295 > 100 µM | MOLT-4 > 100 µM | SK-MEL-5 > 100 µM | NCI-H23 > 100 µM | ACHN > 100 µM | SNB-75 > 100 µM | COLO 205 > 100 µM | SNB-19 > 100 µM | HOP-62 > 100 µM | CCRF-CEM > 100 µM | M14 > 100 µM | HCC 2998 > 100 µM | HOP-92 > 100 µM | UACC-62 > 100 µM | KM12 > 100 µM | UACC-257 > 100 µM

CC1(C)CC(=O)c2c(oc3cc(O)c(O)cc23)C1
inactive: SF-295 43.3 µM | MOLT-4 21.3 µM | SK-MEL-5 17.7 µM | ACHN 31.3 µM | NCI-H522 11.5 µM | SNB-75 32.8 µM | COLO 205 36.6 µM | SNB-19 82.2 µM | HOP-62 41.4 µM | CCRF-CEM 9.84 µM | M14 24.2 µM | HCC 2998 59.4 µM | HOP-92 36.3 µM | UACC-62 17.3 µM | KM12 23.9 µM | UACC-257 30.5 µM

CC[C@@H]1C[C@H]2CC3c4[nH]c5ccc(O)cc5c4CCN(C2)C31
inactive: EKVX > 100 µM | SF-295 > 100 µM | MOLT-4 > 100 µM | NCI-H23 > 100 µM | ACHN > 100 µM | SNB-75 > 100 µM | COLO 205 > 100 µM | SNB-19 > 100 µM | HOP-62 > 100 µM | CCRF-CEM > 100 µM | M14 > 100 µM | HCC 2998 > 100 µM | HOP-92 36.8 µM | UACC-62 > 100 µM | KM12 > 100 µM | UACC-257 > 100 µM

O=c1/c(=C/c2cccc3ccccc23)sc2nc3ccccc3n12
inactive: EKVX > 100 µM | SF-295 > 100 µM | SK-MEL-5 > 100 µM | NCI-H23 > 100 µM | ACHN > 100 µM | NCI-H522 > 100 µM | SNB-75 71.9 µM | COLO 205 > 100 µM | SNB-19 > 100 µM | HOP-62 > 100 µM | M14 > 100 µM | HCC 2998 > 100 µM | HOP-92 > 100 µM | UACC-62 > 100 µM | KM12 > 100 µM | UACC-257 > 100 µM

Cc1ccn2c(c1)nc1nc3ccccc3nc12
inactive: EKVX > 100 µM | SF-295 > 100 µM | SK-MEL-5 > 100 µM | NCI-H23 > 100 µM | ACHN 96.6 µM | NCI-H522 > 100 µM | SNB-75 78.5 µM | COLO 205 > 100 µM | SNB-19 > 100 µM | HOP-62 > 100 µM | CCRF-CEM > 100 µM | M14 > 100 µM | HOP-92 > 100 µM | UACC-62 > 100 µM | KM12 > 100 µM | UACC-257 > 100 µM

— ChEMBL document CHEMBL1201862, “PubChem BioAssay data set” (2004)
